Experiments:
PaMurU [1] = target: T1, PaMurU (Pseudomonas aeruginosa, UniProt Q9I5U0); assay: SUPR-DSF thermal shift (no Kd); nucleotide preference in enzyme assay; type: binding
T1 construct: gene murU

PaMurU [2] = target: T1, PaMurU; assay: malachite green dual-enzyme assay IC50; target assigned by ESI-MS; type: biochemical
PaMurU [3] = target: T1, PaMurU; assay: malachite green dual-enzyme assay IC50; target assigned by ESI-MS; SUPR-DSF shift +[…] °C; type: biochemical

T1 sequence (Q9I5U0 whole entry): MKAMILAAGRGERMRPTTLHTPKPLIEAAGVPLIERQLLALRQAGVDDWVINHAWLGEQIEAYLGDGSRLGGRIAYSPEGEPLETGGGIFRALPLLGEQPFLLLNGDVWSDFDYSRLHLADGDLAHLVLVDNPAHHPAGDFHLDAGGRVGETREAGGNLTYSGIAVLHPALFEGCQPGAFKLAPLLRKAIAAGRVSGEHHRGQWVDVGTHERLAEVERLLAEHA

O=c1ccn([C@@H]2O[C@H](COP(=O)(O)OP(=O)(O)OP(=O)(O)O)[C@@H](O)[C@H]2O)c(=O)[nH]1 [UTP]
ΔTm (PaMurU [1]): 3.86 °C

CCCCCCCCCCCCCCCC[N+](C)(C)C [compound 1, CTAB]
IC50 (PaMurU [2]): 8.25 µM

Nc1c(/N=N/c2ccc(-c3ccc(/N=N/c4cc(S(=O)(=O)O)c5ccccc5c4N)cc3)cc2)cc(S(=O)(=O)O)c2ccccc12 [compound 2, 4-amino-3-[[4-[4-[(1-amino-4-sulfonatonaphthalen-2-yl)diazenyl]phenyl]phenyl]diazenyl] naphthalene-1-sulfonate]
IC50 (PaMurU [3]): 14 µM

— PMC12346966, “Targeting the Cell Wall Salvage Pathway: Dual-Enzyme Inhibition of AmgK and MurU as a Strategy Against Antibiotic Resistance” (International Journal of Molecular Sciences, 2025)
